For one test, the target named is T1, rat EP1 receptor (Rattus norvegicus, UniProt P70597).
T1 construct: expressed in transfected cells; host or cells: COS-1 cells, transient transfection with Lipofectamine 2000
T1 sequence (P70597 1-405): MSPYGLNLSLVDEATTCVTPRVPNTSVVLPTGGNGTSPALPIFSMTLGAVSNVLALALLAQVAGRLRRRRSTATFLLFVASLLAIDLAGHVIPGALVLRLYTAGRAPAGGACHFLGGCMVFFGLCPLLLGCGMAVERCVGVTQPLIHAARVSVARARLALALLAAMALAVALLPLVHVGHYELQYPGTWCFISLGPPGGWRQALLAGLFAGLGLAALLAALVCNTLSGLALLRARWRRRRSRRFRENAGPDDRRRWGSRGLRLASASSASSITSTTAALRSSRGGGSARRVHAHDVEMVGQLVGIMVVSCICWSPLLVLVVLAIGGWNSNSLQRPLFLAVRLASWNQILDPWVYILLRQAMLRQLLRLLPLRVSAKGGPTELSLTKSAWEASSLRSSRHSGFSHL
Description: Test for confirmation of EP1 receptor antagonism: inhibition of prostaglandin E2-induced increase in intracellular calcium concentration in rat EP1 receptor-expressing COS-1 cells. The note with it: prostaglandin E2 10 nM, intracellular calcium fluorescence signal. Type of test: cell-based. On the procedure:
Test for Confirmation of EP1 Receptor Antagonism
(1) Preparation of Rat EP1 Expression Vector
Using Rat Kidney BD Marathon-Ready cDNA (Nippon Becton Dickinson Company, Ltd.) as a template, and using a forward primer shown in (SEQ ID NO:1) and a reverse primer shown in (SEQ ID NO:2), a first run of PCR was carried out using KOD-Plus-Ver 2.0 (Toyobo Co., Ltd.). Further, using this amplification product as a template, and using a forward primer shown in (SEQ ID NO:3) and a reverse primer shown in (SEQ ID NO:4), a second run of PCR was carried out in the same manner. The amplification product obtained by the second run of PCR was incorporated into a vector (pcDNA3.1 D/V5-His-TOPO (registered trademark), Invitrogen Japan K. K.). By a conventional method, the vector containing this amplification product was introduced into E. coli (One Shot TOP10 Competent Cells, Invitrogen Corporation) and transformed. This transformed E. coli was cultured in an LB agar medium for one day. After the culture, colonies were selected and cultured in an LB liquid medium containing 50 μg/mL of ampicillin. After the culture, the vector was purified using a QIAprep Spin Miniprep Kit (Qiagen K. K.). The base sequence of the insertion site of this vector (SEQ ID NO:5) was compared with the rat EP1 base sequence (Ptger1) registered as Accession No. NM_013100 in a publicly-known database (NCBI), and as a result, the base sequences completely matched except for a single base. Further, the amino acid sequence translated by the base sequence completely matched the amino acid sequence of the rat EP1 receptor registered as an NCBI Accession No. NP_037232. Therefore, it was confirmed that the cloned gene sequence was a base sequence of the rat EP1 receptor and the obtained amino acid sequence was that of the rat EP1 receptor. The pcDNA3.1 D/V5-His-TOPO (registered trademark) into which the nucleic acid shown in (SEQ ID NO:5) had been inserted was taken as a rat EP1-expressing vector.
(2) Preparation of Rat EP1 Receptor-Expressing Cells
COS-1 cells (Dainippon Sumitomo Pharma Co., Ltd.) were cultured until they reached confluence in an incubator at 37° C. under a 5% CO2 gas condition, using a D-MEM liquid medium (high glucose and L-glutamine contained, Invitrogen Corporation) to which a penicillin-streptomycin solution (Invitrogen Corporation, final concentration: 100 U/mL as benzylpenicillin; 100 μg/mL as streptomycin) as an antibiotic, MEM nonessential amino acids (Invitrogen Corporation, final concentration: 0.1 mM), and fetal calf serum (Sanko Junyaku Co., Ltd., final concentration: 10%) were added.
(2-2) COS-1 Cell Subculture
The cells that had reached confluence were stripped with 0.05% trypsin/0.53 mM EDTA•4Na (Invitrogen Japan K. K.) and resuspended in the liquid medium. The resuspended cells were diluted and cultured in the liquid medium at a spread ratio from 1:4 to 1:8.
(2-3) Preparation of Cells for Introduction of Rat EP1-Expressing Vector
The cells that had reached confluence were stripped with 0.05% trypsin/0.53 mM EDTA•4Na, and resuspended in a D-MEM liquid medium (high glucose and L-glutamine contained, Invitrogen Corporation) to which MEM nonessential amino acids (final concentration: 0.1 mM) and fetal calf serum (final concentration: 10%) were added. In each well of a Poly D-lysine-coated 96-well microplate (BD BioCoat (registered trademark), Nippon Becton Dickinson Company, Ltd.), this resuspended cell suspension culture was prepared to be 5×10^4 cells/well in 100 μL of the liquid medium, and 100 μL of the cell suspension was dispensed and seeded in each well. After seeding, the cells were cultured in an incubator at 37° C. under a 5% CO2 gas condition. Once the cells for introduction of a rat EP1-expressing vector were adhered (about 2 hours after seeding), introduction of the rat EP1-expressing vector was carried out in the following order.
(2-4) Introduction of Rat EP1-Expressing Vector […]
A general note: Calcium assays in cells follow changes in intracellular calcium, usually with a dye or a luminescent sensor.

The next test relates to Female SD rats. Description: Inhibitory effect of compound on sulprostone-induced bladder contraction. It is filed as in vivo, rat. The note with it: urethane-anesthetized female SD rats, sulprostone 0.3 mg/kg s.c., test agent 1.0 mg/kg intravenously; for Bladder Contraction Inhibition Rate (%) 15 minutes: 15 minutes after administration; for Bladder Contraction Inhibition Rate (%) 60 minutes: 60 minutes after administration. The text has this: Inhibitory Effect of Compound on Sulprostone-Induced Bladder Contraction
Female SD rats were used. Under urethane anesthesia (1.25 g/kg, administered subcutaneously), a tracheal cannula (Size 8, HIBIKI) and a femoral vein cannula for administration (23G needle-equipped PESO) were inserted thereinto. The bladder cannula (PE50) was inserted from the bladder apex. The bladder cannula was connected to a three-way stopcock, and then one port was connected to a pressure transducer and the other port was connected to a syringe filled with saline. Saline was injected into the bladder at an injection rate of 3.6 mL/hour and the bladder contraction pressure was recorded at the time of injection with a recorder (RECTI-HORITZ-8K, NEC Corporation). After 10 minutes from stabilization of the bladder contraction pressure during urination, sulprostone was administered subcutaneously (0.3 mg/kg). Subsequently, once the bladder contraction pressure became constant, a test agent was administered intravenously (1.0 mg/kg). An average bladder contraction pressure during the 10 minute period before administration of sulprostone was used as a baseline (0%). Further, an average bladder contraction pressure during the 10 minute period directly before administration of the test agent was used as a maximum bladder contraction pressure (100%). The average bladder contraction pressures were measured for a 5 minute period before and after 15 minutes and 60 minutes from administration of the test agent. The ratio of this measured value to the maximum bladder contraction pressure was calculated by the following equation and regarded as an average bladder contraction rate after administration of the test agent: (Average Bladder Contraction Rate after Administration of Test Agent (%))=[(Average Bladder Contraction Pressure after Administration of Test Agent)/(Maximum Bladder Contraction Pressure)]×100 EQUATION 1
In addition, the difference between the maximum bladder contraction rate (100%) and the average bladder contraction rate (%) after administration of the test agent was calculated by the following equation and regarded as a bladder contraction inhibition rate of the test agent: (Bladder Contraction Inhibition Rate)=100%−(Average Bladder Contraction Rate after Administration of Test Agent (%)) EQUATION 2

Structures are written as SMILES.

By IC50 is commonly meant the concentration needed to halve the response being measured. For the compound `CCS(=O)(=O)NC(=O)c1cccc(Cn2c(-c3ccccc3)cc3cc(OC)c(Cl)cc32)n1` [Example 1-6, 6-(6-chloro-5-methoxy-2-phenylindol-1-ylmethyl)-N-(ethanesulfonyl)pyridine-2-carboxamide], the IC50 on rat EP1 receptor turned out to be 0.019 µM. Moreover, in the test on Female SD rats, the “Bladder Contraction Inhibition Rate (%) 15 minutes” value is 70.0% and the “Bladder Contraction Inhibition Rate (%) 60 minutes” value came to 35.8%.
On the same counts, the results for `COc1ccc2c(c1)cc(C1(C)CC1)n2Cc1cccc(-c2nnn[nH]2)n1` [Example 5-5, 5-methoxy-2-(1-methylcyclopropyl)-1-[6-(1H-1,2,3,4-tetrazol-5-yl)pyridin-2-ylmethyl]-1H-indole] are 0.024 µM, 85.3% and 55.2%.
Turning to `COc1ccc2c(c1)cc(-c1ccccc1)n2Cc1cccc(C(=O)NS(C)(=O)=O)n1` [Example 1-1, N-(Methanesulfonyl)-6-(5-methoxy-2-phenylindol-1-ylmethyl)pyridine-2-carboxamide], on rat EP1 receptor, the IC50 came to 0.047 µM. Further, in the test on Female SD rats, the “Bladder Contraction Inhibition Rate (%) 15 minutes” value amounted to 67.3% and the “Bladder Contraction Inhibition Rate (%) 60 minutes” value was found to be 75.5%.
On the same counts, the results for `COc1ccc2c(c1)cc(-c1ccccc1)n2Cc1cccc(-c2nnn[nH]2)n1` [Example 2-1, 5-Methoxy-2-phenyl-1-[6-(1H-1,2,3,4-tetrazol-5-yl)pyridin-2-ylmethyl]-1H-indole] are 0.034 µM, 73.2% and 78.1%.

These data come from US8796247B2, “Indole derivative, and pharmacologically acceptable salt thereof” (Kissei Pharmaceutical Co., Ltd., priority 2011, dated 2014).
